Laboratory results published in ChEMBL document CHEMBL4190187, “Discovery of pyrazolopyrimidine derivatives as novel inhibitors of ataxia telangiectasia and rad3 related protein (ATR)” (Bioorg Med Chem Lett, 2017).

Assays:
[1] = target: LIM domain kinase 1 (Homo sapiens) (UniProt P53667); test: Inhibition of recombinant human LIMK1 (285 to 638 residues) at 1 uM using cofilin as substrate after 40 mins in presence of [gamma-33P]ATP by scintillation counting method
Mus musculus [2] = test: AUC in mouse at 10 mg/kg, po; type: ADME, organism-based; conditions: in vivo
[3] = target: Serine/threonine-protein kinase A-Raf (Homo sapiens) (UniProt P10398); test: Inhibition of recombinant human A-Raf (273 to end residues) at 1 uM using myelin basic protein as substrate after 40 mins in presence of [gamma-33P]ATP by scintillation counting method
Serine/threonine-protein kinase A-Raf (Homo sapiens), sequence (P10398 whole entry): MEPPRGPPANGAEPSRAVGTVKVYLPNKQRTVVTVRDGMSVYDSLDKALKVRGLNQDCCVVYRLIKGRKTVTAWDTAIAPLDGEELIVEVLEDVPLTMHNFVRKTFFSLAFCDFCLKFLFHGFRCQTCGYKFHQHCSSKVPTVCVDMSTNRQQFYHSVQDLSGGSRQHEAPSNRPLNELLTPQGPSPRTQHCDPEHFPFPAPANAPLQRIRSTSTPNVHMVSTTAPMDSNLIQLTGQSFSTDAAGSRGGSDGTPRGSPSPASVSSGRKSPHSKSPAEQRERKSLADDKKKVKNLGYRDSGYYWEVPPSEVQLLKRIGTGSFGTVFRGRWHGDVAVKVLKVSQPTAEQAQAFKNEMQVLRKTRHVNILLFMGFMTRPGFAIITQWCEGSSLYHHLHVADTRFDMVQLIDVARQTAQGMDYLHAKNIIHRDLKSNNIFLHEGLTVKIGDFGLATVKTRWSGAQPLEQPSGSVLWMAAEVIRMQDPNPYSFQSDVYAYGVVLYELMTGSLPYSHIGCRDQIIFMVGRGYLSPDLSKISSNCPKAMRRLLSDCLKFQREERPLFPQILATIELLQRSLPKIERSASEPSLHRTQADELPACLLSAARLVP

[4] = target: DNA-dependent protein kinase catalytic subunit (Homo sapiens) (UniProt P78527); test: Inhibition of recombinant full-length human DNA-PK at 1 uM using GST-cMyc-p53 as substrate after 40 mins in presence of [gamma-33P]ATP by scintillation counting method
[5] = target: Homeodomain-interacting protein kinase 2 (Homo sapiens) (UniProt Q9H2X6); test: Inhibition of recombinant human HIPK2 (165 to 564 residues) at 1 uM using myelin basic protein as substrate after 40 mins in presence of [gamma-33P]ATP by scintillation counting method
Homeodomain-interacting protein kinase 2 (Homo sapiens), sequence (Q9H2X6 whole entry, looked up, the tested form may be a part): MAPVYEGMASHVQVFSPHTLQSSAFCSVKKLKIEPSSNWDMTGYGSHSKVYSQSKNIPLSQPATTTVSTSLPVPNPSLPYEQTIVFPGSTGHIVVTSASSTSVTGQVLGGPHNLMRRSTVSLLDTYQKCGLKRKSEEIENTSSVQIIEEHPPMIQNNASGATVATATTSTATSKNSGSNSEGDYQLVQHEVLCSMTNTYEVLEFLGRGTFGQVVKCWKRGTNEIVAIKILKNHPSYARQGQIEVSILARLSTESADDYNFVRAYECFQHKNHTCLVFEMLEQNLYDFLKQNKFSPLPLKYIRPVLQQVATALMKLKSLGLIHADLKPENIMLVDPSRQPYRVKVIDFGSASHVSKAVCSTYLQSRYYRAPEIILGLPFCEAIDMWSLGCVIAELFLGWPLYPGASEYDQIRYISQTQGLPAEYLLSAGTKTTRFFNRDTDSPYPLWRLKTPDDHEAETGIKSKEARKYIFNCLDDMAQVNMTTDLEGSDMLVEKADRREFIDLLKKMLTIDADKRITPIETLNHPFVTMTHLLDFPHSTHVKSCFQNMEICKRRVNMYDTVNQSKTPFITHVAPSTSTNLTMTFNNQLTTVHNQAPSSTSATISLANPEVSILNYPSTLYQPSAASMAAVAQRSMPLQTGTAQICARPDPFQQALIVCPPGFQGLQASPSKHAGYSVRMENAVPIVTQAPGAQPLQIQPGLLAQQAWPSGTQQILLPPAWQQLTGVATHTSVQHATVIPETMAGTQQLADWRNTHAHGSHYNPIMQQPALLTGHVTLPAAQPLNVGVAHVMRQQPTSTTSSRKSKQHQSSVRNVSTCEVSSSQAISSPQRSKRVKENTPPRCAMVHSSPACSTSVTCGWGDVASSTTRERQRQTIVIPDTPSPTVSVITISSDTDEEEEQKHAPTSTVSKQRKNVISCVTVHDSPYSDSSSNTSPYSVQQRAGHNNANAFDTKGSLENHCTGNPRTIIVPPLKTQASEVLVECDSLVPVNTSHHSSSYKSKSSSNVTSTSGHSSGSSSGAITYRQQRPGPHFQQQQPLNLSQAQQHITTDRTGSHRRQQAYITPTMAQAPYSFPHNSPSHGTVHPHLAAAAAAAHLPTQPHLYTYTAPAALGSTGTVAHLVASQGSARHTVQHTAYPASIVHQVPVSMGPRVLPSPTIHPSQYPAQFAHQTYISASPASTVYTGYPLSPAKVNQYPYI

[6] = target: Dual specificity protein kinase CLK3 (Homo sapiens) (UniProt P49761); test: Inhibition of recombinant full-length human CLK3 at 1 uM using ERMRPRKRQGSVRRRV as substrate after 40 mins in presence of [gamma-33P]ATP by scintillation counting method
Dual specificity protein kinase CLK3 (Homo sapiens), sequence (P49761 whole entry, looked up): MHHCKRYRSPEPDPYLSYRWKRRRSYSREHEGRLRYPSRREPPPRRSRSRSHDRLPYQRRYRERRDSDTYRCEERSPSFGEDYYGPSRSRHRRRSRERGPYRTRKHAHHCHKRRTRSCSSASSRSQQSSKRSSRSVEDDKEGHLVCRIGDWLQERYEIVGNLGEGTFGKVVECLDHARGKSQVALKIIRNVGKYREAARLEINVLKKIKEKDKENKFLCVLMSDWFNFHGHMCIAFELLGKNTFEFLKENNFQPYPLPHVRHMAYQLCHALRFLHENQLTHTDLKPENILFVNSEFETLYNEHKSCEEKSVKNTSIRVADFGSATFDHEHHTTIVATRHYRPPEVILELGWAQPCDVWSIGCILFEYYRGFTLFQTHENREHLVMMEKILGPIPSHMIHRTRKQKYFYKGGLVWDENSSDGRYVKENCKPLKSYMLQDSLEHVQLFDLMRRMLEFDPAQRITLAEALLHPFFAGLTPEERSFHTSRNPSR

[7] = target: Proto-oncogene tyrosine-protein kinase receptor Ret (Homo sapiens) (UniProt P07949); test: Inhibition of recombinant human RET (658 to end residues) at 1 uM using KKKSPGEYVNIEFG as substrate after 40 mins in presence of [gamma-33P]ATP by scintillation counting method
[8] = target: Misshapen-like kinase 1 (Homo sapiens) (UniProt Q8N4C8); test: Inhibition of recombinant human MINK (1 to 310 residues) at 1 uM using myelin basic protein as substrate after 40 mins in presence of [gamma-33P]ATP by scintillation counting method
[9] = target: Mitogen-activated protein kinase kinase kinase 20 (Homo sapiens) (UniProt Q9NYL2); test: Inhibition of recombinant full-length human ZAK at 1 uM using myelin basic protein as substrate after 40 mins in presence of [gamma-33P]ATP by scintillation counting method
Mitogen-activated protein kinase kinase kinase 20 (Homo sapiens), sequence (Q9NYL2 2-800 limits assumed): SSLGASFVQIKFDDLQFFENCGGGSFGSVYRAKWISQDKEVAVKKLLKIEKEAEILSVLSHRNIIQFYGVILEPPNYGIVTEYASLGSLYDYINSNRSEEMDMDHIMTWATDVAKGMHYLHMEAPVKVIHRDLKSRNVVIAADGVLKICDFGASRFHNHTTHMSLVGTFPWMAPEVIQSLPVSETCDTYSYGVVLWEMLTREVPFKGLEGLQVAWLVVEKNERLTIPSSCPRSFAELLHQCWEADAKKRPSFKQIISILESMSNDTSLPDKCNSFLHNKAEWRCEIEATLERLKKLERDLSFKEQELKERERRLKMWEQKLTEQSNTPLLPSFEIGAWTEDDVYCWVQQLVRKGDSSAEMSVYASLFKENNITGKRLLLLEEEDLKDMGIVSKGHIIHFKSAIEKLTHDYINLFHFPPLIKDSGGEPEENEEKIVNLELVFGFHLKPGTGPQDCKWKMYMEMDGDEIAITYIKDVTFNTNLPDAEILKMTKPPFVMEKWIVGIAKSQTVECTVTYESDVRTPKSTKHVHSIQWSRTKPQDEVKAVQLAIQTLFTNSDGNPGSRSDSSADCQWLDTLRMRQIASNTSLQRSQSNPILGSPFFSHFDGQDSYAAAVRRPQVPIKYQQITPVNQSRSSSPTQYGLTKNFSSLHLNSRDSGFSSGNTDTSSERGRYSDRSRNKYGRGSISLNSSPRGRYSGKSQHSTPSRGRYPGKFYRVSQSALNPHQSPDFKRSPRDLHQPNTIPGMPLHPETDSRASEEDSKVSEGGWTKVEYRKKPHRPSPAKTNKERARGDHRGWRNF

[10] = target: RAF proto-oncogene serine/threonine-protein kinase (Homo sapiens) (UniProt P04049); test: Inhibition of recombinant human c-RAF (306 to end residues) at 1 uM using inactive MEK1 as substrate after 40 mins in presence of [gamma-33P]ATP by scintillation counting method
[11] = target: SNF-related serine/threonine-protein kinase (Homo sapiens) (UniProt Q9NRH2); test: Inhibition of recombinant human SNRK (1 to 505 residues) at 1 uM using KKLRRTLSFAEPG as substrate after 40 mins in presence of [gamma-33P]ATP by scintillation counting method
Mus musculus [12] = test: Oral bioavailability in mouse at 10 mg/kg; type: ADME, organism-based; conditions: in vivo
[13] = target: Wee1-like protein kinase 2 (Homo sapiens) (UniProt P0C1S8); test: Inhibition of recombinant full-length human Wee1B at 1 uM using LSNLYHQGKFLQTFCGSPLYRRR as substrate after 120 mins in presence of [gamma-33P]ATP by scintillation counting method
[14] = target: MAP kinase-activated protein kinase 2 (Homo sapiens) (UniProt P49137); test: Inhibition of recombinant human MAPKAPK2 (46 to end residues) at 1 uM using KKLNRTLSVA as substrate after 40 mins in presence of [gamma-33P]ATP by scintillation counting method
[15] = target: Mitogen-activated protein kinase kinase kinase 2 (Homo sapiens) (UniProt Q9Y2U5); test: Inhibition of recombinant full-length human MEKK2 at 1 uM using myelin basic protein as substrate after 40 mins in presence of [gamma-33P]ATP by scintillation counting method
[16] = target: 5'-AMP-activated protein kinase catalytic subunit alpha-1 (Homo sapiens) (UniProt Q13131); test: Inhibition of recombinant full-length human AMPKalpha1 at 1 uM using AMARAASAAALARRR as substrate after 40 mins in presence of [gamma-33P]ATP by scintillation counting method
[17] = target: Phosphatidylinositol 3-kinase C2 domain-containing subunit gamma (Homo sapiens) (UniProt O75747); test: Inhibition of recombinant human PI3KC2gamma (468 to 1203 residues) at 1 uM phosphatidylinositol/phosphatidylserine as substrate after 40 mins in presence of [gamma-33P]ATP by scintillation counting method
[18] = target: Serine/threonine-protein kinase TBK1 (Homo sapiens) (UniProt Q9UHD2); test: Inhibition of recombinant full-length human TBK1 at 1 uM using KRRRALS(p)VASLPGL as substrate after 40 mins in presence of [gamma-33P]ATP by scintillation counting method
[19] = target: Vascular endothelial growth factor receptor 3 (Homo sapiens) (UniProt P35916); test: Inhibition of recombinant human Flt4 (800 to end residues) at 1 uM using GGEEEEYFELVKKKK as substrate after 40 mins in presence of [gamma-33P]ATP by scintillation counting method
Vascular endothelial growth factor receptor 3 (Homo sapiens), sequence (P35916 whole entry, the tested form may be a part): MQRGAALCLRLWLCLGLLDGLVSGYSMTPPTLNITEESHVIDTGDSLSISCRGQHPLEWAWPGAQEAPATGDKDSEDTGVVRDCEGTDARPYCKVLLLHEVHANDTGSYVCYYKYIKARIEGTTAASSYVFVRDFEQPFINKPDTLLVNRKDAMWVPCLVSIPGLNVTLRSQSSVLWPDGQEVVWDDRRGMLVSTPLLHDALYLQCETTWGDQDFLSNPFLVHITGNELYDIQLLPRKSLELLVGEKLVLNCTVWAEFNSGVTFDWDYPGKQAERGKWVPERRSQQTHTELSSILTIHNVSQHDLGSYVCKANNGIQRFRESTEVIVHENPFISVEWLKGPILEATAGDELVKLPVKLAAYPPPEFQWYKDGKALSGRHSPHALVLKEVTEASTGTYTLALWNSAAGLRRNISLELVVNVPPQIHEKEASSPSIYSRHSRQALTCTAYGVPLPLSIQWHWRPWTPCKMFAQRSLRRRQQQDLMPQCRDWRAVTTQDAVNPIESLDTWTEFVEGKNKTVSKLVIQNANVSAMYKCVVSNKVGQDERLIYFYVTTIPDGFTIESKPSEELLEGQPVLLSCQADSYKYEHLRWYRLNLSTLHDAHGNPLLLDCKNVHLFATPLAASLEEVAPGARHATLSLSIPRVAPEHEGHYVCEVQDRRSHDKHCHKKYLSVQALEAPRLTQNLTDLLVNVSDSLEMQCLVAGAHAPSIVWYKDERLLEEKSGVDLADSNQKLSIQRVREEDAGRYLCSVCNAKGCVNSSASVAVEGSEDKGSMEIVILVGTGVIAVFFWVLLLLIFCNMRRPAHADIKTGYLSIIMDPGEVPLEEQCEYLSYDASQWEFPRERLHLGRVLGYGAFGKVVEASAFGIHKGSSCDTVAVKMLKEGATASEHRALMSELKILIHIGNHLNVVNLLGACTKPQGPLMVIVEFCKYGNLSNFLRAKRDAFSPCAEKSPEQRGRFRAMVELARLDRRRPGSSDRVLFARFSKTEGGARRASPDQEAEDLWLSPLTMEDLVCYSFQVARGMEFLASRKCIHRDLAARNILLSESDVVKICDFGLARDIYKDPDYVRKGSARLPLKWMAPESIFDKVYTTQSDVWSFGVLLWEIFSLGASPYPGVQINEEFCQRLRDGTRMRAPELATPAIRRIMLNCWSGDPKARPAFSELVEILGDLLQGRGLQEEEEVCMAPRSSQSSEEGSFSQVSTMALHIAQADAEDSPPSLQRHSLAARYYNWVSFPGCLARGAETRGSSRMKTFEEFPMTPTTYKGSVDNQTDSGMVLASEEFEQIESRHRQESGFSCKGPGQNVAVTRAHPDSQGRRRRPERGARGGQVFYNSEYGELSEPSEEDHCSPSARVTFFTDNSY

[20] = target: Myosin-IIIb (Homo sapiens) (UniProt Q8WXR4); test: Inhibition of recombinant human MYO3B (1 to 326 residues) at 1 uM using RLGRDKYKTLRQIRQ as substrate after 40 mins in presence of [gamma-33P]ATP by scintillation counting method
[21] = target: Serine/threonine-protein kinase 25 (Homo sapiens) (UniProt O00506); test: Inhibition of recombinant human STK25 (1 to 308 residues) at 1 uM using RLGRDKYKTLRQIRQ as substrate after 40 mins in presence of [gamma-33P]ATP by scintillation counting method
[22] = tested on: Tyrosine-protein kinase ABL1 (Homo sapiens), P00519 [H396P]; test: Inhibition of recombinant human Abl H396P mutant (27 to end residues) at 1 uM using EAIYAAPFAKKK as substrate after 40 mins in presence of [gamma-33P]ATP by scintillation counting method
[23] = target: Protein kinase C delta type (Homo sapiens) (UniProt Q05655); test: Inhibition of recombinant human PKCdelta (2 to end residues) at 1 uM using ERMRPRKRQGSVRRRV as substrate after 40 mins in presence of [gamma-33P]ATP by scintillation counting method
[24] = target: Mitogen-activated protein kinase 14 (Homo sapiens) (UniProt Q16539); test: Inhibition of recombinant full-length human SAPK2a at 1 uM using myelin basic protein as substrate after 40 mins in presence of [gamma-33P]ATP by scintillation counting method
[25] = tested on: PI3-kinase p110-alpha/p85-alpha (Homo sapiens), P27986+P42336 [H1047R]; test: Inhibition of recombinant full-length human p110a H1047R mutant/p85a at 1 uM using phosphatidylinositol 4,5-bisphosphate as substrate after 40 mins in presence of [gamma-33P]ATP by scintillation counting method; type: protein-complex assay

LIM domain kinase 1 (Homo sapiens), sequence (P53667 whole entry, looked up, the tested form may be a part): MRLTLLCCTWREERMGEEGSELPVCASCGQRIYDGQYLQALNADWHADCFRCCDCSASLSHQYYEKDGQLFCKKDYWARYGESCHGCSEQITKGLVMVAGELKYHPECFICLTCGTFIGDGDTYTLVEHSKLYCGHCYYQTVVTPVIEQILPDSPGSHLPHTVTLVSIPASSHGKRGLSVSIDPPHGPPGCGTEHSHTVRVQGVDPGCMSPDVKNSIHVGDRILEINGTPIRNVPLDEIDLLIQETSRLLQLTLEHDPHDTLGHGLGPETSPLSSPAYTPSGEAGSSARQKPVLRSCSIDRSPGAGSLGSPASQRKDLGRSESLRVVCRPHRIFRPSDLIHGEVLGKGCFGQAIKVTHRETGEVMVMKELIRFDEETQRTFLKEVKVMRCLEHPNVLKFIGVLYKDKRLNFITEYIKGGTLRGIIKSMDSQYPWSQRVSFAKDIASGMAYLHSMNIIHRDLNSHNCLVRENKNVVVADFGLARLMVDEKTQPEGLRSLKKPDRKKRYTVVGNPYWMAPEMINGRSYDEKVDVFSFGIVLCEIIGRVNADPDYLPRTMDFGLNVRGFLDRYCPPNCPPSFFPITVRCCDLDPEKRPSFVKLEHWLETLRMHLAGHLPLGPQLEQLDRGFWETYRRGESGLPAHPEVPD

## CS(=O)(=O)c1ccc(-n2nc(-c3cnc4[nH]ccc4c3)c3c(N)ncnc32)cc1
[1]
  inhibition: 24%
Mus musculus [2]
  AUC: 0.212 µM·h
[3]
  inhibition: -10%
[4]
  inhibition: 59%
[5]
  inhibition: 3%
[6]
  inhibition: -1%
[7]
  inhibition: 95%
[8]
  inhibition: -10%
[9]
  inhibition: 17%
[10]
  inhibition: -1%
[11]
  inhibition: -6%
Mus musculus [12]
  F: 2.83%
[13]
  inhibition: -3%
[14]
  inhibition: -4%
[15]
  inhibition: 5%
[16]
  inhibition: -9%
[17]
  inhibition: 15%
[18]
  inhibition: -4%
[19]
  inhibition: 91%
[20]
  inhibition: 5%
[21]
  inhibition: 45%
[22]
  inhibition: 79%
[23]
  inhibition: 1%
[24]
  inhibition: -5%
[25]
  inhibition: 16%
